Values of other authors as cited in patent publication US5209933A, “Long acting calcium channel blocker composition” (Syntex (U.S.A.) Inc., priority 1991, dated 1993).
Like-named read-outs stand apart in the source and are kept apart here.

How the values were obtained:
calcium channel = conditions: result in words
[1] = result in words
[2] = result in words; remark: listed apart in the source

| Compound | calcium channel blocking activity (calcium channel) | also measured |
| --- | --- | --- |
| CCOC(=O)C1=C(C)NC(C)=C(C(=O)OCC)C1c1ccccc1C(F)F [2,6-dimethyl-3,5-diethoxycarbonyl-4-(o-difluoromethylphenyl)-1,4-dichydropyridine] | high degree of calcium channel blocking activity | – |
| CCOC(=O)C1=C(C)NC(C)=C(C(=O)OC)C1c1cccc(Cl)c1Cl (stereo not drawn) [felodipine, 4-(2',3'-dichloro)-2,6-dimethyl-1,4-dihydropyridine-3,5-dicarboxylic acid 3-ethyl ester 5-methyl ester] | high degree of calcium channel blocking activity | – |
| 4-(3'-nitrophenyl)-2,6-dimethyl-1,4-dihydropyridine-3,5-dicarboxylic acid 3-methyl ester 5-(2-methoxyethyl)ester [nimodipine] | high degree of calcium channel blocking activity | – |
| COC(=O)C1=C(C)NC(C)=C(C(=O)OC)C1c1ccccc1[N+](=O)[O-] [nifedipine, 4-(2'-nitrophenyl)-2,6-dimethyl-1,4-dihydropyridine-3,5-dicarboxylic acid dimethyl ester] | high degree of calcium channel blocking activity | calcium channel blocking activity (calcium channel; listed as 4-(2'-nitrophenyl)-2,6-dimethyl-1,4-dihydropyridine-3,5-dicarboxylic acid dimeth): shows calcium channel blocking activity |
| COC(=O)C1=C(C)NC(C)=C(C(=O)OCCN(C)Cc2ccccc2)C1c1cccc([N+](=O)[O-])c1 (stereo not drawn) [nicardipine, 2,6-dimethyl-4-(3'-nitrophenyl)-1,4-dihydropyridine-3,5-dicarboxylic acid-3-β-(N-benzyl-N-methylamino)-ethyl ester 5-methyl ester] | high degree of calcium channel blocking activity | anti-ischemic properties [1]: possesses anti-ischemic properties; first pass metabolism [2]: extensive first pass metabolism |
| COC(=O)C1=C(C)NC(C)=C(C(=O)OC(C)C)C1c1cccc([N+](=O)[O-])c1 (stereo not drawn) [isopropyl methyl 1,4-dihydro-2,6-dimethyl 4-(3-nitrophenyl)-3,5-pyridine dicarboxylate] | high degree of calcium channel blocking activity | – |
| CCOC(=O)C1=C(C)NC(C)=C(C(=O)OC)C1c1cccc([N+](=O)[O-])c1 (stereo not drawn) [nitrendipine, 4-(3'-nitrophenyl)-2,6-dimethyl-1,4-dihydropyridine-3,5-dicarboxylic acid 3-ethyl ester 5-methyl ester] | high degree of calcium channel blocking activity | – |
| CCCOCCOC(=O)C1=C(C)NC(C)=C(C(=O)OCCOCCC)C1c1cccc([N+](=O)[O-])c1 [niludipine, 4-(3'-nitrophenyl)-2,6-dimethyl-1,4-dihydropyridine-3,5-dicarboxylic acid di-n-propyloxethyl ester] | high degree of calcium channel blocking activity | – |
| COC(=O)C1=C(C)NC(C)=C(C(=O)OCC(C)C)C1c1ccccc1[N+](=O)[O-] (stereo not drawn) [nisoldipine, 4-(2'-nitrophenyl)-2,6-dimethyl-1,4-dihydropyridine-3,5-dicarboxylic acid 3-methyl ester 5-isobutyl ester] | high degree of calcium channel blocking activity | – |
